Type in all cases: physicochemical
Series [1] can be described thus: Stability of hydrate / anhydrous form (humidity, ambient conditions, heating). From the text: Under standard conditions the crystalline trihydrochloride salt form of N-[trans-4-[4-(cyclopropylmethyl)-1-piperazinyl]cyclohexyl]-4-[[(7R)-7-ethyl-5,6,7,8-tetrahydro-5-methyl-8-(1-methylethyl)-6-oxo-2-pteridinyl]amino]-3-methoxy-benzamide according to the invention is present in the form of an hydrate and is obtainable after drying with a changing stoichiometry (1-3 water equivalents). The hydrate with a stoichiometry close to a trihydrate seems to be the stable hydrated form under ambient conditions and can be obtained after conditioning of the dried material. The crystal water is tightly bound.
At about 260° C. another strong endothermic peak can be observed in the DSC-diagram, indicating melting of the dehydrated form. The onset of this melting event is at about 245° C. Melting occurs, however, under decomposition, indicated by the accompanied weight loss upon melting. When performing a TG-IR coupling experiment, it can be shown that hydrochloric acid is released upon decomposition. The respective anhydrous form, obtained by heating a sample up to 140° C. is not stable.

A short description of series [2]: Solubility in aqueous media.
Series [3] in a line: Solid state stability under harsh stress conditions. From the text: No significant decomposition or impurities (Σ<2.4%) can be observed under the applied stress conditions.
A further series in a line: physchem. How it is done: This hydrated form of the trihydrochloride salt of the compound N-[trans-4-[4-(cyclopropylmethyl)-1-piperazinyl]cyclohexyl]-4-[[(7R)-7-ethyl-5,6,7,8-tetrahydro-5-methyl-8-(1-methylethyl)-6-oxo-2-pteridinyl]amino]-3-methoxy-benzamide of formula (I) is highly soluble (>10 mg/ml) in propylenglycol, glycofurol, Cremophor RH40 (30% aqueous solution), Poloxamer 188 (20% aqueous solution), Solutol HS 15 (20% aqueous solution) as well as HP-β-cyclodextrin (20%-, 10%-, 5%-aqueous solutions). • Solid state properties of an hydrated form of the trihydrochloride salt of N-[trans-4-[4-(cyclopropylmethyl)-1-piperazinyl]cyclohexyl]-4-[[(7R)-7-ethyl-5,6,7,8-tetrahydro-5-methyl-8-(1-methylethyl)-6-oxo-2-pteridinyl]amino]-3-methoxy-benzamide. • Appearance

Each structure is given as a SMILES string. Where only a bound is given, the exact number is not on record here.

The source of these data is patent US8188086B2, “Specific salt, anhydrous and crystalline form of a dihydropteridione derivative” (Boehringer Ingelheim International GmbH, priority 2006, dated 2012).

A word on the solubility: it is how much of the substance goes into solution per volume.

In the case of `CC[C@@H]1C(=O)N(C)c2cnc(Nc3ccc(C(=O)N[C@H]4CC[C@H](N5CCN(CC6CC6)CC5)CC4)cc3OC)nc2N1C(C)C.Cl` [N-[trans-4-[4-(cyclopropylmethyl)-1-piperazinyl]cyclohexyl]-4-[[(7R)-7-ethyl-5,6,7,8-tetrahydro-5-methyl-8-(1-methylethyl)-6-oxo-2-pteridinyl]amino]-3-methoxy-benzamide], the “stability under ambient conditions compared to the anhydrous form” value in series [1] (ambient conditions) is given as “advantage of stability under ambient conditions”. For the same molecule, the “weight loss on lowering the humidity” value in series [1] (humidity down to 10% r.h.) is on record as “does not result in a significant weight loss”. The “solubility in physiologically acceptable solvents” value in series [2] is reported as “readily soluble in physiologically acceptable solvents”. In addition, the “pH dependent solubility profile in aqueous media” value in series [2] (conclusion from Table I) is “high solubility in acidic and neutral media and strongly reduced solubility in basic media”. Besides, the solubility was more than 10000 µg/mL in series [2] (pH 2.2, aqueous buffer); 6200 µg/mL in series [2] (pH 3, aqueous buffer); 7200 µg/mL in series [2] (pH 4, aqueous buffer); 7200 µg/mL in series [2] (pH 5, aqueous buffer); 7100 µg/mL in series [2] (pH 6, aqueous buffer); 7800 µg/mL in series [2] (pH 7.4, aqueous buffer). In addition, the solubility (in series [2] (simulated gastric fluid); in series [2] (water); in the series “physchem”; in the series “physchem” (aqueous with cosolvent or surfactant or cyclodextrin); in the series “physchem” (organic solvent or mixture)) was more than 10000 µg/mL each time. Further, in series [3] (24 hours at 105° C., 72 hours at 70° C. and >90% rel. humid., or 24 hours in a Xenotester (λ=300-800 nm, 250 W·m^−2)), the “decomposition or impurities (Σ)” value is reported as less than 2.4%. For the same molecule, the “stability in the solid state” value in series [3] (harsh stress conditions (105° C. 24 h; 70° C./>90% rel. humid. 72 h; Xenotester 24 h)) was “very stable in the solid state”.
`CC[C@@H]1C(=O)N(C)c2cnc(Nc3ccc(C(=O)N[C@H]4CC[C@H](N5CCN(CC6CC6)CC5)CC4)cc3OC)nc2N1C(C)C.Cl` [anhydrous form, N-[trans-4-[4-(cyclopropylmethyl)-1-piperazinyl]cyclohexyl]-4-[[(7R)-7-ethyl-5,6,7,8-tetrahydro-5-methyl-8-(1-methylethyl)-6-oxo-2-pteridinyl]amino]-3-methoxy-benzamide]: the “stability of the anhydrous form” value in series [1] (obtained by heating a sample up to 140° C.) was “not stable”.
`CC[C@@H]1C(=O)N(C)c2cnc(Nc3ccc(C(=O)N[C@H]4CC[C@H](N5CCN(CC6CC6)CC5)CC4)cc3OC)nc2N1C(C)C.Cl` [trihydrochloride salt, N-[trans-4-[4-(cyclopropylmethyl)-1-piperazinyl]cyclohexyl]-4-[[(7R)-7-ethyl-5,6,7,8-tetrahydro-5-methyl-8-(1-methylethyl)-6-oxo-2-pteridinyl]amino]-3-methoxy-benzamide]: in series [2], the “solubility in water compared to the free base” value was “much more soluble than the free base”.
